Test results taken from US20050064382A1, “Method of prevention of lysosomal leakage in eukaryotic cells by using 6-methyluracil based water-soluble compounds and method of producing thereof” (priority 2002, published 2005).

What was measured:
[1] = tested on: Mouse erythroleukemia (MEL) cells; test: Growth activity following maximal cell damage (two freeze/thaw cycles, 10% DMSO); assay type: cell-based
Procedure: Mouse erythroleukemia (MEL) cells were damaged from exposure to two freeze/thaw cycles. The cells were then grown in the presence of 10% dimethylsulfoxide (DMSO), a substance known to damage cell membranes. […] The cells were then subjected to two freeze/thaw cycles (the cells were quickly brought to −135° C., incubated for 1 hour at −135° C. and quickly thawed to 100% humidity and 37° C.). The cell concentration was then determined by counting, using a hematocytometer. The experiments were done in duplicate.

Intact MEL cells = test: Cell toxicity of Glucural in intact conditions: growth of MEL; assay type: cell-based, mouse; settings: for number of cells per ml, Regular conditions: 24 hours
[2] = tested on: rat thyroid-derived cell line FRTL-5; test: Storage of FRTL-5 cells at low temperature, viability by well bottom coverage; assay type: cell-based
Procedure: (§1) The goal of the study was to assess the influence of Glucural on cell recovery of different mammalian cells suspended in various cryo-protectors. A single layer of the rat thyroid-derived cell line FRTL-5 was grown in VPF-12 medium containing 10% calf serum (C.S.) in Petri dishes (10 cm) stored in an environment of 5% CO2, 100% humidity and at 37° C. Cell coverage on the Petri dish bottom reached 80-90% over 6-8 days. A single-layer cell culture of the cell line from the anterior lobe of the pituitary gland (corticotrophs) of ATT-20 was grown in similar fashion but in D-MEM medium containing 10% C.S.
(§2) After exposure, cell suspensions were melted quickly in aliquots with cell suspension equal to 0.2 or 0.4 ml per well. The growing period varied depending on conditions of cell storage. All trials were performed in duplicate. Cell viability was estimated by the percentage of the well bottom covered by cells.
(§3) The same method was used here as in tests with MEL cells. Cryo-protectors used were not optimal for FRTL-5 and ATT-20 cells. Conditions of freezing were not optimal in assays # 1, 5 and 6.

[3] = tested on: ATT-20 cells (anterior lobe of the pituitary gland, corticotrophs); test: Storage of ATT-20 cells at low temperature, viability by well bottom coverage; assay type: cell-based; settings: 10% Glycerol
Procedure: as §1, §2, §3

[4] = tested on: immortal human monocytes (THP-1 cells); test: Short-term growth of THP-1 cells in 10% DMSO (trypan-blue test); assay type: cell-based
Procedure: Percentage of dead cells (trypan-blue test) and concentrations of live cells (×1,000,000 cells/ml) were determined. The growth medium was RPMI 1640 with fetal serum and other supplements.

[5] = tested on: Human umbilical cord vein endothelial cells (HUCVEC); test: HUCVEC Assay 1: enzymatic and mechanical damage; assay type: cell-based; settings: after 7 days, without change of medium
Procedure: Glucural was also tested on two primer cell cultures for protection against cell death in sub-optimal conditions.
Human umbilical cord vein endothelial cells (HUCVEC) were isolated from freshly obtained human umbilical cords in accordance with known methods. HUCVEC were grown in multi-well plates. After saturation of the wells, the assays were initiated. Four wells were used for each experimental group. To cause “mechanical” damage, a higher (2-2½ times) centrifugal speed was used to pick up cells after trypsin treatment. To cause enzymatic damage, full-strength trypsin solution was used instead of the recommended diluted concentration. All assays were started from the last change of medium in wells with saturated cell culture (well bottoms were covered completely by cells). Results were estimated from the percentage of the bottom covered by cells on the last day of the assay.
Assay 1. Enzymatic and mechanical damage to cells: Growth after 7 days, without change of medium.

[6] = tested on: HUCVEC exposed to human TNF-alpha; test: HUCVEC Assays 4-6: exposure to human TNF-alpha, trypan-blue test; assay type: cell-based; settings: Glucural 500 mkg/ml
Procedure: To test for cell damage, HUCVEC were exposed for period of 6 to 24 hours to the human TNF-alpha. The trypan-blue test was used. After exposure, mono-layers were removed by trypsin treatment. Results were estimated based on the percentage of colored dead cells in the mono-layer.

Saccaramices Cerevisiae = test: Viability of lyophilized yeast; assay type: cell-based; settings: added prior to lyophilization
Procedure: The lyophilization of yeast is a very common technique used in different fields of industry, biotechnology and research. The viability of lyophilized yeast species and strains can vary greatly. The viability of commercial baking yeast after lyophilization is high (50-80%). But other strains of yeast used in industry and research, can have viability as low as […]. […] Glucural was tested using the strain of yeast called Saccaramices Cerevisiae, a strain with a very low level of viability after lyophilization. By increasing the viability of lyophilized yeast inoculums, the amount of yeast required to make such inoculums may be lowered.
The standard method of lyophilization was used. […] The suspensions were aliquoted and lyophilized at standard conditions.
To assay the vitality of lyophilized yeast, two approaches were used:
The lyophilized yeast from an ampoule was re-suspended in 1 ml of regular growing medium and diluted by 10, 100, and 1,000 times. The suspensions of yeast were plated on the regular YPD agarose medium by 20 mkl per plate. After growing the colonies for 48 hours at 28° C., the number of colonies was counted.
This test included growing lyophilized yeast in 10 ml of growth medium for 24 hours, before plating on the agarose plates as described above.
The viability of the yeast strain tested increased by a factor of between 50 to 100 compared to the control group.

Shelf life = assay type: physicochemical; settings: ambient temperatures
[7] = standard tests by Dr. Kirk Sperber, unpublished data; cited from earlier work
[8] = 10% DMSO plus Glucural 10 mkg/ml, 4.5 hrs
[9] = 10% DMSO plus Glucural 10 mkg/ml, 24 hrs
[10] = 10% DMSO plus Glucural 20 mkg/ml, 4.5 hrs
[11] = 10% DMSO plus Glucural 20 mkg/ml, 24 hrs
[12] = 10% DMSO plus Glucural 50 mkg/ml, 4.5 hrs
[13] = 10% DMSO plus Glucural 50 mkg/ml, 24 hrs

## complex of 2,4-dihydroxy-6-methylpyrimidine with N-methyl-D-glucamine [Glucural]
[1]; Glucural 5 mkg/ml
  The number of cells per 1 ml: 0 ×10^4
[1]; Glucural 10 mkg/ml
  The number of cells per 1 ml: 0 ×10^4
[1]; Glucural 25 mkg/ml
  The number of cells per 1 ml: 53 ± 7 ×10^4
[1]; Glucural 50 mkg/ml
  The number of cells per 1 ml: 107 ± 7 ×10^4
Intact MEL cells; Glucural 25 mkg/ml
  number of cells per ml, Regular conditions: 67 ± 1 x 10^4
Intact MEL cells; Glucural 50 mkg/ml
  number of cells per ml, Regular conditions: 68 ± 1 x 10^4
Intact MEL cells; Glucural 100 mkg/ml
  number of cells per ml, Regular conditions: 71 ± 2 x 10^4
Intact MEL cells; Glucural 200 mkg/ml
  number of cells per ml, Regular conditions: 58 ± 3 x 10^4
Intact MEL cells; Glucural 400 mkg/ml
  number of cells per ml, Regular conditions: 69 ± 5 x 10^4
Intact MEL cells; Glucural from 25 to 400 mkg/ml
  influence on cells in regular conditions: no influence
[2]; #1 FRTL-5 (4 days), 10% Glycerol, −70° C., Glucural 100 mg/ml
  Percentage of well bottom covered by cells: 90-100%
[2]; #1 FRTL-5 (4 days), 10% Glycerol, −70° C., Glucural 200 mg/ml
  Percentage of well bottom covered by cells: 90-100%
[2]; #2 FRTL-5 (36 days), 10% Glycerol, −190° C., Glucural 100 mg/ml
  Percentage of well bottom covered by cells: 10-15%
[2]; #3 FRTL-5 (4 days), 50% C.S., 0° C., 30 min, Glucural 100 mg/ml
  Percentage of well bottom covered by cells: 60-70%
[2]; #3 FRTL-5 (4 days), 50% C.S., 0° C., 30 min, Glucural 200 mg/ml
  Percentage of well bottom covered by cells: 60-70%
[3]; #4 AtT-20 (3 days), −190° C., Glucural 50 mg/ml
  Percentage of well bottom covered by cells: 50-60%
[3]; #4 AtT-20 (3 days), −190° C., Glucural 100 mg/ml
  Percentage of well bottom covered by cells: 80-90%
[3]; #5 AtT-20 (44 days), −70° C., Glucural 100 mg/ml
  Percentage of well bottom covered by cells: 40-50%
[3]; #5 AtT-20 (44 days), −70° C., Glucural 200 mg/ml
  Percentage of well bottom covered by cells: 30-40%
[3]; #6 AtT-20 (46 days), −70° C., additional melting freezing, Glucural 100 mg/ml
  Percentage of well bottom covered by cells: 20-30%
[3]; #6 AtT-20 (46 days), −70° C., additional melting freezing, Glucural 200 mg/ml
  Percentage of well bottom covered by cells: 10-20%
[4]; [8]
  Percentage of dead cells (trypan-blue test): 13.3 ± 1.3%
  concentrations of live cells: 1.06 ± 0.08 ×1,000,000 cells/ml
[4]; [9]
  Percentage of dead cells (trypan-blue test): 40.5 ± 0.5%
  concentrations of live cells: 2.21 ± 0.26 ×1,000,000 cells/ml
[4]; [10]
  Percentage of dead cells (trypan-blue test): 2.6 ± 2.0%
  concentrations of live cells: 0.52 ± 0.05 ×1,000,000 cells/ml
[4]; [11]
  Percentage of dead cells (trypan-blue test): 36.1 ± 0.75%
  concentrations of live cells: 0.86 ± 0.04 ×1,000,000 cells/ml
[4]; [12]
  Percentage of dead cells (trypan-blue test): 17.2 ± 0.4%
  concentrations of live cells: 0.65 ± 0.03 ×1,000,000 cells/ml
[4]; [13]
  Percentage of dead cells (trypan-blue test): 39.5 ± 1.1%
  concentrations of live cells: 1.31 ± 0.02 ×1,000,000 cells/ml
[5]; Glucural 40 mkg/ml
  Percent of well-bottom covered by cells: 2-5%
[5]; Glucural 400 mkg/ml
  Percent of well-bottom covered by cells: 70-80%
[6]; Assay 4, 24 hours, TNF-alpha 20 ng/ml
  Percent of dead cells in mono-layer: 10.3 ± 1.3%
[6]; Assay 4, 24 hours, no TNF-alpha
  Percent of dead cells in mono-layer: 4.4 ± 0.4%
[6]; Assay 5, 8 hours, TNF-alpha 10 ng/ml
  Percent of dead cells in mono-layer: 4.1 ± 0.4%
[6]; Assay 5, 8 hours, TNF-alpha 20 ng/ml
  Percent of dead cells in mono-layer: 5.4 ± 0.4%
[6]; Assay 5, 8 hours, no TNF-alpha
  Percent of dead cells in mono-layer: 5.7 ± 0.5%
[6]; Assay 6, 6 hours, TNF-alpha 40 ng/ml
  Percent of dead cells in mono-layer: 10.9 ± 3.4%
[6]; Assay 6, 6 hours, no TNF-alpha
  Percent of dead cells in mono-layer: 13.8 ± 2.7%
Saccaramices Cerevisiae
  optimal dose to protect yeast cells: 25 mkg/ml
Shelf life
  shelf life: more than 10 years
[7]
  anti-inflammatory action compared with thalidomide: equal anti-inflammatory action as thalidomide
